According to ChEMBL document CHEMBL2034861, “Tyrosyl-DNA phosphodiesterase 1 inhibitor from an anamorphic fungus” (J Nat Prod, 2012):

How the values were obtained:
Mus musculus [1] = assay: Toxicity in nude mouse KSN assessed as weight loss at 2 mg/kg, ip qd administered every other day for 19 days measured on day 21 relative to vehicle treated control; assay type: organism-based; parameters: dose 2 mg/kg, route intraperitoneal; settings: in vivo, 456 h
HT-29 [2] = assay: Antiproliferative activity against human HT-29 cells after 48 hrs by WST-8 assay; assay type: functional, cell-based; settings: HT-29, 48 h
[3] = Antiproliferative activity against human NAMALWA cells after 48 hrs by WST-8 assay; assay type: functional, cell-based; settings: NAMALVA
HeLa = assay: Antiproliferative activity against human HeLa cells after 48 hrs by WST-8 assay; assay type: functional, cell-based
Mus musculus [4] = assay: Toxicity in nude mouse KSN assessed as adverse effects at 2 mg/kg, ip qd administered every other day for 19 days measured on day 21 relative to vehicle treated control; assay type: organism-based; parameters: dose 2 mg/kg, route intraperitoneal; settings: in vivo, 456 h
HT-29 [5] = assay: Antitumor activity against human HT-29 cells xenografted in nude mouse KSN assessed as reduction in tumor volume at 2 mg/kg, ip qd administered every other day from day 7 post-tumor injection for 19 days measured on day 21 relative to vehicle treated control; assay type: functional; settings: route intraperitoneal
[6] = molecular target: Tyrosyl-DNA phosphodiesterase 1 (Homo sapiens, UniProt Q9NUW8); assay: Inhibition of human Tdp1 using 3'-phosphate-(4-methylumbelliferone)-thymidine as substrate after 180 mins by spectrophotometry
NCI-H2052 = assay: Antiproliferative activity against human NCI-H2052 cells after 48 hrs by WST-8 assay; assay type: functional, cell-based; settings: NCI-H2052, 48 h

Sequence of Tyrosyl-DNA phosphodiesterase 1 (Q9NUW8 whole entry): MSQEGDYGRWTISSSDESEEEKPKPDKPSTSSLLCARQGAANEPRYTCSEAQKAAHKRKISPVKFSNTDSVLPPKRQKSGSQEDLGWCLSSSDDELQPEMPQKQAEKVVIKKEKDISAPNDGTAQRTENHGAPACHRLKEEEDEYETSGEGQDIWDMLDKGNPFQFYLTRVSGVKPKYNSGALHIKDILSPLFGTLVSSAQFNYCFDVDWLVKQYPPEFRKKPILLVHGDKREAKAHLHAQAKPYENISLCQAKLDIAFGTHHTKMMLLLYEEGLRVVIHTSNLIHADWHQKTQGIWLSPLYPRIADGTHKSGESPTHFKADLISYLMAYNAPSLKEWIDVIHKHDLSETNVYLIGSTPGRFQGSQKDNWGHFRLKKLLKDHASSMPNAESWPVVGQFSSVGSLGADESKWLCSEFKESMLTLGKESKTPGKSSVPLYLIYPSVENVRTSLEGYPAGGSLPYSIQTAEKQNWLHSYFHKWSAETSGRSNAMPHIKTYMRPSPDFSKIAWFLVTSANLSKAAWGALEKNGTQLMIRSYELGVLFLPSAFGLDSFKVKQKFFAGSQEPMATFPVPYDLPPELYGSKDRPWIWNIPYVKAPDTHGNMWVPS

IC50 (HT-29 [2]): 4 µM
IC50 (HeLa): 9.2 µM
IC50 [6]: 18 µM
IC50 (NCI-H2052): 13 µM
Structure (SMILES): CCCCC(C)C1=CC(=O)C2=C(O[C@]3(C)CC[C@H]4O[C@@H]([C@@](C)(O)C(=O)O)CC[C@]4(C)[C@H]3C2)C1=O (stereo partly drawn)
Activity (Mus musculus [1]): Non-toxic
IC50 [3]: 3.5 µM
Activity (Mus musculus [4]): Non-toxic
T/C (HT-29 [5]): 0.51
